This note sets out measurements from patent US6184396A, “Triazole derivative or salt thereof, preparation process thereof and pharmaceutical containing said compound as an effective ingredient” (SSP Co., Ltd., priority 1998, dated 2001).

The test system of one test is C. albicans IFM 40009. Description: Test 3: Action against Candida albicans (in vivo). More on the design: species or system C. albicans; mice (ICR (CRJ: CD-1), male, 4-week-old). Conditions: mice infected i.v. with C. albicans, 1.25 mg/kg oral, 1 hour after inoculation then once a day for 4 days from 24 hours; for Surviving mice on Day 14, number of surviving mice/total number in group: control 0/11; for Average Survival days: control 4.5 days, *** p < 0.001 relative to control. As for the experimental part: Test 3: Action against Candida albicans (in vivo)
After 4-week-old, male, ICR (CRJ: CD-1) mice were fasted for 6 hours, C. albicans IFM 40009 was inoculated to the tail vein of each of the mice to give an amount of 3.0×10^6 cells/mouse, whereby infection was caused. A control group consisted of 11 mice, while a medicament-administered group consisted of 5 mice. The medicament dissolved in 20% polyethylene glycol was orally administered 1 hour after the inoculation of the fungus and from 24 hours after the inoculation, it was administered once a day for 4 straight days, each in an amount of 1.25 mg/kg. The survival condition on Day 14 after the infection was compared. In addition, the survival days of the control group and the medicament-administered group were detected by the Kaplan-Meier method (Cox mantel test). Incidentally, Fluconazole was employed as a medicament for comparison.

The test system of a further test is C. albicans ATCC 44859. Description: Test 1: Action against Candida albicans (in vitro). The class given is cell-based. Conditions: ATCC44859, minimum concentration with apparent suppression of mycelial type growth vs medicament-free control, MEM medium + 10% fetal bovine serum, 37° C., 24 hours, CO2, read-out: Terminal point C. albicans. As for the experimental part:
Test 1: Action against Candida albicans (in vitro)
The resulting mixture was incubated at 37° C. for 24 hours in a CO2 gas incubator. After incubation, a morphological change of C. albicans was observed under an inverted microscope. The minimum medicament concentration permitting the apparent suppression of mycerial type growth compared with that of a medicament-free control was designated as a terminal point (ng/ml).

In a further test the test system is A. fumigatus IFM 40808. Put plainly: Test 2: Action against Aspergillus fumigatus (in vitro). The test is classed as cell-based. The following applies: IFM40808, 0.165M MOPS-containing RPMI 1640, pH 7, almar Blue, 35° C., 48 hours. The procedure:
Test 2: Action against Aspergillus fumigatus (in vitro)
They were incubated at 35° C. for 48 hours.

Values after ≈ are worked out from the molar mass of the structure shown.

Regarding `COC(Cn1cncn1)(c1ccc(F)cc1F)C(F)(F)S(=O)(=O)C1CC1` (stereo not drawn) [Example 15, 1-[3-(cyclopropylsulfonyl)-2-(2,4-difluorophenyl)-3,3-difluoro-2-methoxypropyl]-1H-1,2,4-triazole], in the test on C. albicans IFM 40009, the “Surviving mice on Day 14, number of surviving mice/total number in group” value was 4/5 and the “Average Survival days” value was 13.4 days.

With `COC(Cn1cncn1)(c1ccc(F)cc1F)C(F)(F)SC1CC1` (stereo not drawn) [Example 10, 1-[3-(cyclopropylthio)-2-(2,4-difluorophenyl)-3,3-difluoro-2-methoxypropyl]-1H-1,2,4-triazole], the results for the MIC in the test on C. albicans ATCC 44859 and against A. fumigatus IFM 40808 were 0.0313 µg/mL and 32 µg/mL (≈ 88.6 µM), respectively.

Take `OC(Cn1cncn1)(c1ccc(F)cc1F)C(F)(F)SC1CC1` (stereo not drawn) [Example 7, 1-(cyclopropylthio)-2-(2,4-difluorophenyl)-1,1-difluoro-3-(1H-1,2,4-triazol-1-yl)-2-propanol]: the MIC in the test on C. albicans ATCC 44859 was found to be 0.0078 µg/mL; in the test with A. fumigatus IFM 40808, 2 µg/mL (≈ 5.76 µM).

With `OC(Cn1cncn1)(c1ccc(F)cc1)C(F)(F)SC1CC1` (stereo not drawn) [Example 8, 1-(cyclopropylthio)-1,1-difluoro-2-(4-fluorophenyl)-3-(1H-1,2,4-triazol-1-yl)-2-propanol], the MIC with C. albicans ATCC 44859 worked out at 0.0156 µg/mL; with A. fumigatus IFM 40808 it was 8 µg/mL (≈ 24.3 µM).

On to `O=S(=O)(C1CC1)C(F)(F)C(O)(Cn1cncn1)c1ccc(F)cc1F` (racemic) [Example 12, 1-(cyclopropylsulfonyl)-2-(2,4-difluorophenyl)-1,1-difluoro-3-(1H-1,2,4-triazol-1-yl)-2-propanol], for which the MIC in the test with C. albicans ATCC 44859 stood at 0.0313 µg/mL; against A. fumigatus IFM 40808 it was 8 µg/mL (≈ 21.1 µM). Further, the “Surviving mice on Day 14, number of surviving mice/total number in group” value in the test with C. albicans IFM 40009 is given as 4/5. The “Average Survival days” value in the test with C. albicans IFM 40009 came out at 14.00 days.

For `O=S(=O)(C1CC1)C(F)(F)C(O)(Cn1cncn1)c1ccc(F)cc1F` (single isomer, unassigned; (-)) [Example 17(2), (-)-1-(Cyclopropylsulfonyl)-2-(2,4-difluorophenyl)-1,1-difluoro-3-(1H-1,2,4-triazol-1-yl)-2-propanol], the figures for the MIC with C. albicans ATCC 44859 and in the test on A. fumigatus IFM 40808 were 0.0156 µg/mL and 2 µg/mL (≈ 5.27 µM), respectively.

In the case of `OC(Cn1cncn1)(Cn1cncn1)c1ccc(F)cc1F` [Fluconazole, reference compound], the MIC in the test with C. albicans ATCC 44859 worked out at 0.25 µg/mL. In the test with C. albicans IFM 40009, the “Surviving mice on Day 14, number of surviving mice/total number in group” value is recorded as 1/5 and the “Average Survival days” value worked out at 11.0 days. Further, the MIC in the test with A. fumigatus IFM 40808 was > 128 µg/mL.
